Experiments:
human platelet membranes = molecular target: T1, human platelet membranes (Homo sapiens, UniProt P31645); experiment: Platelet imipramine binding ([3H]-imipramine); design: key to Platelet Imipramine Binding, Result: Active: A compound is considered active if greater than about 50% inhibition is achieved at a concentration of about 10 μM; conditions: 10 μM test compound, 60 min at 0° C.; for inhibition at 10 µM: [3H]imipramine
T1 construct: from tissue; host or cells: human platelets (membranes of sonicated platelet concentrates)
Procedure: The activity of the compounds of this invention as anti-depressant agents was also shown in the following test which measures the ability of a test compound to inhibit [^3 H]-imipramine binding to human platelet membranes. Human platelet concentrates were diluted about 1:20 with antiprotease containing buffer of the following composition:
Approximately 0.12M: sodium chloride
Approximately 0.05M: tris buffer
Approximately 0.005N: potassium chloride
Approximately 0.025: μg/ml aprotinin
Approximately 0.5: μg/ml pepstatin
Approximately 2×10^-5 N: bacitracin
Approximately 3 mN: ethylenediaminetetraacetic acid
Approximately 1 mN: ethyleneglycol-bis-(β-aminoethyl ether)-N,N'-tetracetic acid
Such buffer was kept at about pH 6.8 to prevent platelet release and aggregation. The diluted platelets were centrifuged at about 2,500 g and then resuspended in about 50 volumes of the same buffer. The cells were then ruptured with a Branson sonicator while the suspension was maintained in an ice bath. The ruptured cells were then centrifuged at about 18,000 g, resuspended in fresh buffer and recentrifuged at about 18,000 g. The resulting membranes were then diluted with the above antiprotease buffer, which had been adjusted to about pH 7.4, and to a protein concentration of about 3.0 mg/ml.
The test compounds were dissolved in dimethylsulfoxide at a concentration of about 50 mM and then diluted about 1:10 in either water, about 0.1M hydrochloric acid or about 0.1M sodium hydroxide. They were then diluted about 1:100 in buffer to about 50 μM, and about 50 μl of this stock solution was placed in triplicate test tubes. The tubes were cooled to about 0° C. and about 200 μl of the following mixture were added:
About 100 μl of 3 mg/ml membrane in buffer
About 50 μl of 15 nM[^3 H]imipramine in buffer
The tubes were incubated for about 60 minutes at about 0° C. Controls contain either buffer alone (100%) or about 10 μM final of desmethylimipramine (DMI). The samples were diluted with about 5 ml of buffer [0.12M-sodium chloride, 0.05M-tris buffer, 0.005M-potassium chloride (pH 7.4)], vacuum filtered and washed twice with about 5 ml of buffer. Radioactivity was measured in a liquid scintillation counter and the degree of binding was calculated.

mice [1] = experiment: Tetrabenazine-induced depression (exploratory behavior); assay type: in vivo; design: key to Tetrabenazine-Induced Depression, Result: Active: A compound is considered active if 3 or more of the 10 mice are protected against the tetrabenazine-induced effects; conditions: about 25 mg/kg i.p., 30 min before tetrabenazine methanesulfonate about 39 mg/kg i.p.; for Tetrabenazine-Induced Depression, mice protected of 10: protected/tested; for Tetrabenazine-Induced Depression, Result: tested 30 min later
Procedure: The compounds of this invention are useful as anti-depressant agents in warm-blooded animals. The anti-depressant properties of these compounds were tested by measuring their ability to counteract depression induced in such animals by the administration of tetrabenazine methanesulfonate. Each test compound was administered intraperitoneally to 10 mice at a dose of about 25 mg/kg of body weight. Approximately thirty minutes later, tetrabenazine methanesulfonate was administered intraperitoneally to each mouse at a dose of about 39 mg/kg of body weight, which dose is known to depress markedly the exploratory behavior of normal mice. Approximately thirty minutes later, the mice were tested for their exploratory behavior as described by E. Greenblatt and A. C. Osterberg, Toxicology and Applied Pharmacology, 7: 556-578 (1965). A compound is considered active if 3 or more of the 10 mice are protected against the tetrabenazine-induced effects.

mice [2] = experiment: Tetrabenazine-induced ptosis; assay type: in vivo; design: key to Tetrabenazine-Induced Ptosis, Result: Active: A compound is considered active if 5 or more of 10 mice respond; conditions: about 25 mg/kg i.p.; for Tetrabenazine-Induced Ptosis, Result: 30 min before tetrabenazine methanesulfonate about 39 mg/kg i.p., examined 30 min later; for Tetrabenazine-Induced Ptosis, mice responding of 10: responders (about 75% or greater opening of palpebral aperture)/tested
Procedure: Inhibition of tetrabenazine-induced ptosis is observed concomitantly with the inhibition of tetrabenazine-induced depression. Ptosis is defined as more than about 75% closure of palpebral aperture induced in animals by the administration of tetrabenazine methanesulfonate. The compounds were administered intraperitoneally at a dosage of about 25 mg per kilogram of body weight to groups of 10 mice. About thirty minutes later, tetrabenazine methanesulfonate was administered intraperitoneally to each mouse at a dose of about 39 mg/kg. About thirty minutes after the injection of tetrabenazine, the mice were placed on an observation disc and examined for approximately 10 seconds for inhibition of ptosis. […] A compound is considered active if 5 or more of 10 mice respond.

T1 sequence (P31645 whole entry): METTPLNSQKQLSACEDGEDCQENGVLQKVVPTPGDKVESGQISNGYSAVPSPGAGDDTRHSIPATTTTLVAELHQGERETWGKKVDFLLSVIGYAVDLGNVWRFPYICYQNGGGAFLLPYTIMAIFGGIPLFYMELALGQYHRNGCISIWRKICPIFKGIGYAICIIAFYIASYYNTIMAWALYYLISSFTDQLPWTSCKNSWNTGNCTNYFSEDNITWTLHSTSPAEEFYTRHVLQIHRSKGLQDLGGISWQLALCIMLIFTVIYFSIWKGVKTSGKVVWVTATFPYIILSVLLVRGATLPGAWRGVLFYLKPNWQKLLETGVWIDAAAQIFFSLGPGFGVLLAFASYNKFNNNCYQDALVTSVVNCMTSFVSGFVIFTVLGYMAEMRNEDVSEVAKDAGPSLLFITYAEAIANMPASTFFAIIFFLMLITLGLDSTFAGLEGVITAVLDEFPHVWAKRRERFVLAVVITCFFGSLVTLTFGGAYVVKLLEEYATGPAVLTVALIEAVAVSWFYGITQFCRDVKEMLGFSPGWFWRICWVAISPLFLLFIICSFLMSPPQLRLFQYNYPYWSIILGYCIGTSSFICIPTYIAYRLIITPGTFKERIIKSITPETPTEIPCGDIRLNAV

| SMILES | Platelet Imipramine Binding, Result (human platelet membranes) | inhibition at 10 µM (human platelet membranes) | Tetrabenazine-Induced Depression, mice protected of 10 (mice [1]) | Tetrabenazine-Induced Depression, Result (mice [1]) | Tetrabenazine-Induced Ptosis, Result (mice [2]) | Tetrabenazine-Induced Ptosis, mice responding of 10 (mice [2]) |
| --- | --- | --- | --- | --- | --- | --- |
| COc1cccc(C23CCC2CN(C)C3)c1.O.O=C(O)/C=C/C(=O)O (centres unmarked) [1-(m-Methoxyphenyl)-3-methyl-3-azabicyclo[3.2.0]heptane, and fumarate salt monohydrate] | Active | 99.8% | – | – | – | – |
| Cc1ccc(C23CCC2CN(C)C3)cc1.O=C(O)/C=C/C(=O)O (centres unmarked) [1-(p-Methylphenyl)-3-methyl-3-azabicyclo[3.2.0]heptane, and fumarate salt] | – | – | 5/10 | Active | Active | 10/10 |
| CCO[C@@H]1C[C@@H]2CN(C)C[C@@]21c1cccc(OC)c1 (relative stereo) [7α-Ethoxy-1β-(m-methoxyphenyl)-3-methyl-3-azabicyclo[3.2.0]heptane] | Active | 92% | – | – | – | – |
| CCO[C@H]1C[C@@H]2CN(C)C[C@@]21c1cccc(OC)c1 (relative stereo) [7β-Ethoxy-1β-(m-methoxyphenyl)-3-methyl-3-azabicyclo[3.2.0]heptan] | Active | 94% | 3/10 | Active | Active | 9/10 |

From patent US4544665A, “1-Aryl-3-azabicyclo[3.2.0]heptanes” (American Cyanamid Company, priority 1983, dated 1985)
